Laboratory results reported in patent publication US4889855A, “Heterocyclic compounds and their preparation and use” (priority 1987, dated 1989).

Tests used:
[1] = test system: NMDA (N-methyl-D-aspartate) receptors; conditions: background; cited from earlier work
quisqualate receptor [2] = assay: 3H-AMPA binding (Test 1); conditions: displacement of 50% of the specific binding of 3H-AMPA (5 nM), rat cerebral cortical membranes, 0° C., 30 min
Description: The quisqualate receptor binding activity of the compounds of the present invention can be illustrated by determining their capability for displacing radioactively labelled 2-amino-3hydroxy-5-methyl-4-isoxazolepropionic acid (AMPA) from the quisqualatee type receptors.
The displacement activity of the compounds may be shown by determining the IC50 value which represents the concentration (μg/ml) which causes a displacement of 50% of the specific binding of ^3 H-AMPA.
^3 H-AMPA binding (Test 1)
500 μl of thawed rat cerebral cortical membrane homogenate in Tris-HCl (30 mM), CaCl2 (2.5 mM) and KSCN (100 mM) pH 7.1 were incubated at 0° C. for 30 min. with 25μl ^3 H-AMPA (5 nM final concentration) and the test compound and buffer. Nonspecific binding was determined by incubation with L-glutamic acid (600 μM final concentration). The binding reaction was terminated by adding 5 ml of ice-cold buffer followed by filtration through Whatman GF/C glass fibre filters and 2×5 ml wash with ice-cold buffer. Bound radioactivity was measured by scintillation counting. IC50 was determined by Hill analysis of at least four concentrations of test compound.

quisqualate receptor [3] = assay: Antagonism of quisqualic acid induced 22Na+-release from striatal slices (Test 2); type: cell-based; conditions: reduces quisqualic acid (2 μg/ml) stimulated 22Na+ efflux by 50%, rat striatal slices
Protocol: The quisqualate antagonism is measured by determining the EC50 value which represents the concentration which reduces the rate of quisqualic acid stimulated sodium efflux by 50%.
Antagonism of quisqualic acid induced ^22 Na^+ -release (Test 2)
Slices from rat striatum were preincubated with ^22 Na^+ for 30 min. After the ^22 Na^+ loading period, the slices were successively and every minute transferred through a series of tubes, each containing 1.5 ml of a non-radioactive physiological solution saturated with O2, with the help of a basket shaped sieve. Quisqualic acid (2 μg/ml) was present in the last 5 tubes and the compound to be tested was present in the same 5 tubes plus 3 tubes before. The amount of radioactivity in each washout tube as well as that left in the slices at the end of the experiment was measured by scintillation counting. EC50 -values were calculated by Hill analysis from at least three different concentrations of test compound as the concentration of test compound which reduces the efflux rate of ^22 Na^+ -ions to 50% of the efflux rate in the absence of test compound.

NMDA receptor = assay: Inhibition of NMDA stimulated 3H-GABA release from cultured cerebral cortex interneurons (Test 3); type: cell-based; conditions: inhibits 50% of NMDA (3 μg/ml) induced 3H-GABA release, mouse cerebral cortex interneurons
Description: The NMDA antagonistic properties of the compounds is illustrated by determining their capability to antagonize NMDA stimulated ^3 H-GABA release from cultured mouse cortex neurons.
The NMDA antagonistic activity of the compounds may be shown by determining the IC50 value, which represents the concentration (μg/ml) which inhibits 50% of NMDA induced ^3 H-GABA release.
Inhibition of NMDA stimulated ^3 H-GABA release from cultured mouse cerebral cortex interneurons (Test 3) Release experiments are performed using the model described by Drejer et al. (Life Sci. 38, 2077 (1986)). To cerebral cortex interneurons cultured in petri dishes (30 mm) are added 100 μg/ml 3-vinyl-GABA one […] before the experiment in order to inhibit degradation of GABA in the neurons. 30 min before the experiment 5 μCi ^3 H-GAGA is added to each culture and after this preloading period the cells are washed twice with a HEPES (N-2 Hydroxyethylpiperazine-N'-2-ethanesulfonic acid) buffered saline (HBS) containing 10 mM HEPES, 135 mM NaCl, 5 mM KCl, 0.6 mM MgSO4, 1.0 mM CaCl2 and 6 mM D-glucose; pH 7 and placed in a superfusion system. This system consists of a peristaltic pump continuously delivering thermostated 37° C. superfusion medium from a reservoir to the top of a slightly-tilted petri dish. The cell monolayer at the bottom of the dish is covered with a piece of nylon mesh to facilitate dispersion of medium over the cell layer. The medium is continuously collected from the lower part of the dish and delivered to a fraction collector. Initially, the cells are superfused with HBS for 15 min (flow rate 2 ml/min). Then cells are stimulated for 30 sec every 4 min by changing the superfusion medium from HBS to a corresponding medium containing NMDA and antagonists according to the following scheme: […]
stimulation no. 1: 3 μg/ml NMDA stimulation no. 2: 3 μg/ml NMDA+0.3 μg/ml antagonist stimulation no. 3: 3 μg/ml NMDA+3 μg/ml antagonist
Test substances are dissolved in water or 48% ethanol. The final ethanol concentration in the assay must not exceed 0.1%.
The release of ^3 H-GABA in the presence of NMDA (stimulated relase in cpm) are corrected for the mean basal release (cpm) before and after the stimulation.
The stimulated release in the presence of antagonists are expressed relative to the stimulated release by NMDA alone and the IC50 value for the antagonist is calculated (the concentration (μg/ml) of the test substance which inhibits 50% of the NMDA induced ^3 H-GABA release) either from a dose response curve or from the formula: [formula] where Co is stimulated release in control assays and Cx is the stimulated release in the test assay (the calculation assumes normal mass-action interaction). 25-75% inhibition of the NMDA stimulation must be obtained, before calculation of IC50.

quisqualate receptors = conditions: background; cited from earlier work
kainate receptors = conditions: background; cited from earlier work

N[C@H](C(=O)O)c1cc(=O)[nH]o1 [Ibotenic acid]
agonist activity on NMDA receptors [1]: strong to moderate agonist activity

O=[N+]([O-])c1cccc2c1c([N+](=O)[O-])cc1nc(O)c(O)nc12 [2,3-Dihydroxy-6,7-dinitrobenzo(f)quinoxaline]
Test 1 IC50 (quisqualate receptor [2]): 0.06 µg/mL | Test 2 EC50 (quisqualate receptor [3]): 2.8 µg/mL | Test 3 IC50 (NMDA receptor): 0.3 µg/mL

N[C@@H](CCC(=O)O)C(=O)O [L-glutamic acid]
agonist activity on quisqualate receptors (quisqualate receptors): potent agonists

Cc1onc(O)c1CC(N)C(=O)O (stereo not drawn) [AMPA, 2-amino-3-hydroxy-5-methyl-4-isoxazolepropionic acid]
agonist activity on quisqualate receptors (quisqualate receptors): potent agonists

N[C@H](CCCP(=O)(O)O)C(=O)O [D-APV, 2-amino-5-phosphono-valeric acid]
antagonist activity on NMDA receptors [1]: most potent and selective antagonists

N[C@@H](CCS(=O)(=O)O)C(=O)O [L-homocysteic acid]
agonist activity on NMDA receptors [1]: strong to moderate agonist activity

O=[N+]([O-])c1cccc2c(Br)cc3nc(O)c(O)nc3c12 [6-bromo-2,3-dihydroxy-10-nitrobenzo(f)quinoxaline]
Test 1 IC50 (quisqualate receptor [2]): 9.2 µg/mL | Test 3 IC50 (NMDA receptor): 0.25 µg/mL

N[C@H](CCC(=O)O)C(=O)O [D-glutamic acid]
agonist activity on NMDA receptors [1]: strong to moderate agonist activity

N[C@@H](Cn1oc(=O)[nH]c1=O)C(=O)O [quisqualic acid]
agonist activity on quisqualate receptors (quisqualate receptors): activated selectively

O=C(O)[C@@H]1CCCN[C@H]1C(=O)O (relative stereo) [trans-2,3-PDA, trans-2,3-piperidine dicarboxylic acid]
agonist activity on NMDA receptors [1]: strong to moderate agonist activity

N[C@H](CCCCCP(=O)(O)O)C(=O)O [D-APH, 2-amino-7-phosphonoheptanoic acid]
antagonist activity on NMDA receptors [1]: most potent and selective antagonists

CCOC(=O)CCC(N)C(=O)OCC (stereo not drawn) [GDEE, Glutamic acid diethyl esteer]
antagonist activity at quisqualate receptors (quisqualate receptors): selective but very weak antagonist | antagonism / selectivity at kainate receptors (kainate receptors): relatively insensitive to antagonism

O=[N+]([O-])c1cc2nc(O)c(O)nc2c2c1CCCC2 [7,8,9,10-Tetrahydro-2,3-dihydroxy-6-nitrobenzo(f)quinoxaline]
Test 1 IC50 (quisqualate receptor [2]): 0.17 µg/mL | Test 3 IC50 (NMDA receptor): 0.092 µg/mL

N[C@H](CCCC(=O)O)C(=O)O [D-2-amino-adipic acid]
antagonist activity on NMDA receptors [1]: moderate antagonist activity

O=[N+]([O-])c1cc2nc(O)c(O)nc2c2c([N+](=O)[O-])cccc12 [2,3-Dihydroxy-6,10-dinitrobenzo(f)quinoxaline]
Test 1 IC50 (quisqualate receptor [2]): 0.85 µg/mL | Test 3 IC50 (NMDA receptor): 0.97 µg/mL

O=[N+]([O-])c1cc2nc(O)c(O)nc2c2ccccc12 [2,3-Dihydroxy-6-nitrobenzo(f)quinoxaline]
Test 1 IC50 (quisqualate receptor [2]): 0.69 µg/mL | Test 2 EC50 (quisqualate receptor [3]): 14 µg/mL | Test 3 IC50 (NMDA receptor): 0.39 µg/mL

N[C@H](CCC[C@H](N)C(=O)O)C(=O)O [diaminopimelic acid]
antagonist activity on NMDA receptors [1]: moderate antagonist activity

Nc1cc2nc(O)c(O)nc2c2ccccc12 [6-Amino-2,3-dihydroxybenzo(f)quinoxaline]
Test 1 IC50 (quisqualate receptor [2]): 1.1 µg/mL | Test 2 EC50 (quisqualate receptor [3]): 23 µg/mL

O=[N+]([O-])c1cc2nc(O)c(O)nc2c2cccnc12 [2,3-Dihydroxy-6-nitropyrido(2,3-f)quinoxaline]
Test 1 IC50 (quisqualate receptor [2]): 0.61 µg/mL | Test 3 IC50 (NMDA receptor): 1.5 µg/mL

N[C@@H](CCC(=O)NCC(=O)O)C(=O)O [3-glutamyl-glycine]
antagonism / selectivity at kainate receptors (kainate receptors): some selectivity for kainate receptors
